From patent US9499550B2 (BRISTOL-MYERS SQUIBB COMPANY, priority 2012, dated 2016)
Where two headings read alike, the source gives them in different places.

Key:
[1] = system: HCV genotype 1a (H77 strain) replicon in HUH-7 cells; test: HCV replicon luciferase reporter assay, genotype 1a; format: cell-based; settings: Hepatitis C virus, Huh-7, 72 h, 3 days incubation, read-out: LE_1a (EC50, range)
Method in brief: (§1)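 Replicon inhibition for both genotypes was measured as Renilla luciferase signal (EnduRen, 7.5 μM final, 2 h) after 3-day, 37° C exposure of replicon-bearing HUH-7 cells in 4% FCS DMEM, 0.5% DMSO. The 1b construct carries S1179I; the 1a H77 construct carries P1496L and S2204I. Twenty-point, 3-fold dilutions were fitted four-parametrically for EC50, and CC50 was taken from multiplexed Cell Titer-Blue.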

[2] = system: HCV genotype 1b (Con1) replicon in HUH-7 cells; test: HCV replicon luciferase reporter assay, genotype 1b; format: cell-based; settings: Hepatitis C virus, Huh-7, 72 h, 3 days incubation, read-out: LE_1b (EC50, range)
Method in brief: as §1

[3] = HCV genotype 1a replicon luciferase assay, range class
[4] = HCV genotype 1b replicon luciferase assay, range class
[5] = HCV genotype 1a replicon luciferase
[6] = HCV genotype 1b replicon luciferase
[7] = GETYPE1A, HCV genotype 1a replicon luciferase
[8] = GETYPE1B, HCV genotype 1b replicon luciferase

| SMILES | EC50 [1, 5] | EC50 [2, 6] | other results |
| --- | --- | --- | --- |
| C[C@@H]1CC/C=C\[C@@H]2C[C@@]2(C(=O)NS(=O)(=O)C2(C)CC2)NC(=O)[C@@H]2C[C@@H](Oc3ncc(OCC(F)F)c4ccccc34)CN2C(=O)[C@@H](NC(=O)OC(C)(C)C(F)(F)F)[C@H](C)C1 [Compound 1030, 1,1,1-trifluoro-2-methylpropan-2-yl((2R,6S,7R,9R,13aS,14aR,16aS,Z)-2-((4-(2,2-difluoroethoxyl)isoquinolin-1-yl)oxy)-7,9-dimethyl-14a-(((1-methylcyclopropyl)sulfonyl)carbamoyl)-5,16-dioxo-1,2,3,5,6,7,8,9,10,11,13a,14,14a,15,16,16a-hexadecahydrocyclopropa[e]pyrrolo[1,2-a][1,4]diazacyclopentadecin-6-yl)carbamate] |  |  | EC50 [1, 3]: < 5.46 nM; EC50 [2, 4]: < 5.46 nM |
| CC[C@@H]1C[C@H](C)CC/C=C\[C@@H]2C[C@@]2(C(=O)NS(=O)(=O)C2(CF)CC2)NC(=O)[C@@H]2C[C@@H](Oc3nc4c(c5ccccc35)CCCO4)CN2C(=O)[C@H]1NC(=O)OC(C)(C)C(F)(F)F [Compound 6068, 1,1,1-trifluoro-2-methylpropan-2-yl((2R,6S,7R,9R,13aS,14aR,16aS,Z)-2-((2,3-dihydro-1H-pyrano[2,3-c]isoquinolin-6-yl)oxy)-7-ethyl-14a-(((1-(fluoromethyl)cyclopropyl)sulfonyl)carbamoyl)-9-methyl-5,16-dioxo-1,2,3,5,6,7,8,9,10,11,13a,14,14a,15,16,16a-hexadecahydrocyclopropa[e]pyrrolo[1,2-a][1,4]diazacyclopentadecin-6-yl)carbamate] | 1.01 to 5 nM | 0.51 to 1 nM |  |
| COc1ccc2ncc(O[C@@H]3C[C@H]4C(=O)N[C@]5(C(=O)NS(=O)(=O)C6(CF)CC6)C[C@H]5/C=C\CC[C@@H](C)C[C@@H](C)[C@H](NC(=O)OC(C)(C)C(F)(F)F)C(=O)N4C3)nc2c1 [Compound 4088] |  |  | EC50 [1, 7]: < 5.46 nM; EC50 [2, 8]: < 5.46 nM |
| COc1cnc(O[C@@H]2C[C@H]3C(=O)N[C@]4(C(=O)NS(=O)(=O)C5CC5)C[C@H]4/C=C\CC[C@@H](C)C[C@@H](C)[C@H](NC(=O)OC(C)(C)C)C(=O)N3C2)c2cc(Cl)ccc12 [Compound 1161, tert-butyl ((2R,6S,7R,9R,13aS,14aR,16aS,Z)-2-((7-chloro-4-methoxyisoquinolin-1-yl)oxy)-14a-((cyclopropylsulfonyl)carbamoyl)-7,9-dimethyl-5,16-dioxo-1,2,3,5,6,7,8,9,10,11,13a,14,14a,15,16,16a-hexadecahydrocyclopropa[e]pyrrolo[1,2-a][1,4]diazacyclopentadecin-6-yl)carbamate] |  |  | EC50 [1, 3]: < 5.46 nM; EC50 [2, 4]: < 5.46 nM |
| COc1cc2ccnc(O[C@@H]3C[C@H]4C(=O)N[C@]5(C(=O)NS(=O)(=O)C6CC6)C[C@H]5/C=C\CC[C@@H](C)C[C@@H](C)[C@H](NC(=O)OC(C)(C)C(C)(F)F)C(=O)N4C3)c2cc1OC [Compound 5389, 3,3-difluoro-2-methylbutan-2-yl((2R,6S,7R,9R,13aS,14aR,16aS,Z)-14a-((cyclopropylsulfonyl)carbamoyl)-2-((6,7-dimethoxyisoquinolin-1-yl)oxy)-7,9-dimethyl-5,16-dioxo-1,2,3,5,6,7,8,9,10,11,13a,14,14a,15,16,16a-hexadecahydrocyclopropa[e]pyrrolo[1,2-a][1,4]diazacyclopentadecin-6-yl)carbamate] | 1.01 to 5 nM | 1.01 to 5 nM |  |
| COc1ccc2c(O[C@@H]3C[C@H]4C(=O)N[C@]5(C(=O)NS(=O)(=O)C6CC6)C[C@H]5/C=C\CC[C@@H](C)C[C@@H](C)[C@H](NC(=O)OC(C)(C)C(C)(F)F)C(=O)N4C3)nc(N(C)C)cc2c1 [Compound 3132, 3,3-difluoro-2-methylbutan-2-yl((2R,6S,7R,9R,13aS,14aR,16aS,Z)-14a-((cyclopropylsulfonyl)carbamoyl)-2-((3-(dimethylamino)-6-methoxyisoquinolin-1-yl)oxy)-7,9-dimethyl-5,16-dioxo-1,2,3,5,6,7,8,9,10,11,13a,14,14a,15,16,16a-hexadecahydrocyclopropa[e]pyrrolo[1,2-a][1,4]diazacyclopentadecin-6-yl)carbamate] |  |  | EC50 [1, 3]: < 5.46 nM; EC50 [2, 4]: < 5.46 nM |
| CCC(C)(CC)OC(=O)N[C@@H]1C(=O)N2C[C@H](Oc3nccc4c5c(ccc34)OCCO5)C[C@H]2C(=O)N[C@]2(C(=O)NS(=O)(=O)C3CC3)C[C@H]2/C=C\CC[C@@H](C)C[C@H]1C [Compound 5266, 3-methylpentan-3-yl((2R,6S,7R,9R,13aS,14aR,16aS,Z)-14a-((cyclopropylsulfonyl)carbamoyl)-2-((2,3-dihydro-[1,4]dioxino[2,3-f]isoquinolin-7-yl)oxy)-7,9-dimethyl-5,16-dioxo-1,2,3,5,6,7,8,9,10,11,13a,14,14a,15,16,16a-hexadecahydrocyclopropa[e]pyrrolo[1,2-a][1,4]diazacyclopentadecin-6-yl)carbamate] | < 5.46 nM | < 5.46 nM |  |
| CC[C@@H]1C[C@H](C)CC/C=C\[C@@H]2C[C@@]2(C(=O)NS(=O)(=O)C2(C)CC2)NC(=O)[C@@H]2C[C@@H](Oc3nccc4cc(OC)ccc34)CN2C(=O)[C@H]1NC(=O)O[C@H](C)C(F)(F)F [Compound 4177, (R)-1,1,1-trifluoropropan-2-yl (2R,6S,7R,9R,13aS,14aR,16aS,Z)-7-ethyl-2-(6-methoxyisoquinolin-1-yloxy)-9-methyl-14a-(1-methylcyclopropylsulfonylcarbamoyl)-5,16-dioxo-1,2,3,5,6,7,8,9,10,11,13a,14,14a,15,16,16a-hexadecahydrocyclopropa[e]pyrrolo[1,2-a][1,4]diazacyclopentadecin-6-ylcarbamate] | < 5.46 nM | < 5.46 nM |  |
| C[C@H]1CC/C=C\[C@@H]2C[C@@]2(C(=O)NS(=O)(=O)C2CC2)NC(=O)[C@@H]2C[C@@H](Oc3nccc4c5c(ccc34)OCCO5)CN2C(=O)[C@@H](NC(=O)OC(C)(C)C(F)(F)F)[C@H](C)C1 [Compound 5258, 1,1,1-trifluoro-2-methylpropan-2-yl((2R,6S,7R,9S,13aS,14aR,16aS,Z)-14a-((cyclopropylsulfonyl)carbamoyl)-2-((2,3-dihydro-[1,4]dioxino[2,3-f]isoquinolin-7-yl)oxy)-7,9-dimethyl-5,16-dioxo-1,2,3,5,6,7,8,9,10,11,13a,14,14a,15,16,16a-hexadecahydrocyclopropa[e]pyrrolo[1,2-a][1,4]diazacyclopentadecin-6-yl)carbamate] | 4.82 to 103 nM | < 5.46 nM |  |
| CCOc1ccc2c(O[C@@H]3C[C@H]4C(=O)N[C@]5(C(=O)NS(=O)(=O)C6(C)CC6)C[C@H]5/C=C\CC[C@H](C)C[C@@H](C)[C@H](NC(=O)O[C@H](C)C(F)(F)F)C(=O)N4C3)nccc2c1 [Compound 5141, (R)-1,1,1-trifluoropropan-2-yl ((2R,6S,7R,9S,13aS,14aR,16aS,Z)-2-((6-ethoxyisoquinolin-1-yl)oxy)-7,9-dimethyl-14a-(((1-methylcyclopropyl)sulfonyl)carbamoyl)-5,16-dioxo-1,2,3,5,6,7,8,9,10,11,13a,14,14a,15,16,16a-hexadecahydrocyclopropa[e]pyrrolo[1,2-a][1,4]diazacyclopentadecin-6-yl)carbamate] | 4.82 to 103 nM | < 5.46 nM |  |
| COc1ccc2c(O[C@@H]3C[C@H]4C(=O)N[C@]5(C(=O)NS(=O)(=O)C6(C)CC6)C[C@H]5/C=C\CC[C@@H](C)C[C@@H](C)[C@H](NC(=O)OC(C)(C)C(F)(F)F)C(=O)N4C3)ncc(OC(=O)OC(C)(C)C(F)(F)F)c2c1 [Compound 4106] |  |  | EC50 [1, 7]: 4.82 to 103 nM; EC50 [2, 8]: 4.82 to 103 nM |
| COc1cc2ccnc(O[C@@H]3C[C@H]4C(=O)N[C@]5(C(=O)NS(=O)(=O)C6(C)CC6)C[C@H]5/C=C\CC[C@@H](C)C[C@@H](C)[C@H](NC(=O)OC(C)(C)C(F)(F)F)C(=O)N4C3)c2cc1OC [Compound 5375, 1,1,1-trifluoro-2-methylpropan-2-yl((2R,6S,7R,9R,13aS,14aR,16aS,Z)-2-((6,7-dimethoxyisoquinolin-1-yl)oxy)-7,9-dimethyl-14a-(((1-methylcyclopropyl)sulfonyl)carbamoyl)-5,16-dioxo-1,2,3,5,6,7,8,9,10,11,13a,14,14a,15,16,16a-hexadecahydrocyclopropa[e]pyrrolo[1,2-a][1,4]diazacyclopentadecin-6-yl)carbamate] | 1.01 to 5 nM | 0.51 to 1 nM |  |
| CC(C)Oc1ccc2c(O[C@@H]3C[C@H]4C(=O)N[C@]5(C(=O)NS(=O)(=O)C6CC6)C[C@H]5/C=C\CC[C@H](C)C[C@@H](C)[C@H](NC(=O)OC(C)(C)C(F)(F)F)C(=O)N4C3)nccc2c1 [Compound 5147, 1,1,1-trifluoro-2-methylpropan-2-yl((2R,6S,7R,9S,13aS,14aR,16aS,Z)-14a-((cyclopropylsulfonyl)carbamoyl)-2-((6-isopropoxyisoquinolin-1-yl)oxy)-7,9-dimethyl-5,16-dioxo-1,2,3,5,6,7,8,9,10,11,13a,14,14a,15,16,16a-hexadecahydrocyclopropa[e]pyrrolo[1,2-a][1,4]diazacyclopentadecin-6-yl)carbamate] | 4.82 to 103 nM | 4.82 to 103 nM |  |
